Target: FGFR3 enzyme (Homo sapiens (Human), UniProt P22607)
Test: FGFR Enzymatic Assay (peptide phosphorylation, FRET), FGFR3
Format: biochemical
Details: IC50 ratio showing FGFR3 selectivity; pre-incubated for 4 hours
Protocol: The inhibitor potency of the exemplified compounds was measured in an enzyme assay that measures peptide phosphorylation using FRET measurements to detect product formation. Inhibitors were serially diluted in DMSO and a volume of 0.5 μL was transferred to the wells of a 384-well plate.
GraphPad prism3 was used to analyze the data.

Chain of FGFR3 enzyme (P22607 23-806): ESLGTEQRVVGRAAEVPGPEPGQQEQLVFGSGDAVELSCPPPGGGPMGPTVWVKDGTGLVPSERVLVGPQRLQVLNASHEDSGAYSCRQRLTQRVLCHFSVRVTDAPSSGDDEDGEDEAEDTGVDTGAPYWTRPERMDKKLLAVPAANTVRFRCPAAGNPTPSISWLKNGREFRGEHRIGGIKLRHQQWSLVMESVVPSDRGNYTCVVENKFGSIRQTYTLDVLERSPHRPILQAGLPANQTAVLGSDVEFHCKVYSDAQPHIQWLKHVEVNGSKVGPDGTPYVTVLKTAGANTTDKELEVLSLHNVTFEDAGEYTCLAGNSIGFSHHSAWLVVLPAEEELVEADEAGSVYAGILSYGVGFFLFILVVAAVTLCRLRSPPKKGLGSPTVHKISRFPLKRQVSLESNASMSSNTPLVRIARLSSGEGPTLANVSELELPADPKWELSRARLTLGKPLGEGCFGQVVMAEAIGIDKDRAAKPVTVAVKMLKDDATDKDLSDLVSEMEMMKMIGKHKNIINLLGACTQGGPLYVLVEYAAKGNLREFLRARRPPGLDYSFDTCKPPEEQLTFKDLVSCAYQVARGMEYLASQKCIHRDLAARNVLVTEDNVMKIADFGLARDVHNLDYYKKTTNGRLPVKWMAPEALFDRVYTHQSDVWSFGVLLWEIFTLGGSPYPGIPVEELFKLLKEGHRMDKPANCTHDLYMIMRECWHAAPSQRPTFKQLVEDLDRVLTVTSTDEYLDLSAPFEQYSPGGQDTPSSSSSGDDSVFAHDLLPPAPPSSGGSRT

Structure (SMILES) | FGFR1/FGFR3 | FGFR4/FGFR3
COc1cc(OC)c(F)c(N2Cc3cnc(-c4ccc(C5(C#N)CCC5)nc4)cc3N(c3cnn(C)c3)C2=O)c1F [Example 188, 1-{5-[3-(2,6-difluoro-3,5-dimethoxyphenyl)-1-(1-methyl-1H-pyrazol-4-yl)-2-oxo-1,2,3,4-tetrahydropyrido[4,3-d]pyrimidin-7-yl]pyridin-2-yl}cyclobutanecarbonitrile] | >5 | >5
COc1cc(OC)c(F)c(N2Cc3cnc(-c4cnn(C)c4)cc3C3(CC3)C2=O)c1F [Example 186, 2′-(2,6-difluoro-3,5-dimethoxyphenyl)-6′-(1-methyl-H-pyrazol-4-yl)-1′,2′-dihydro-3′H-spiro[cyclopropane-1,4′-[2,7]naphthyridin]-3′-one] | >5 | >5
COc1cc(OC)c(F)c(N2Cc3cnc(-c4cn(C)nc4C)cc3N(Cc3cc(C)no3)C2=O)c1F [Example 35, 3-(2,6-difluoro-3,5-dimethoxyphenyl)-7-(1,3-dimethyl-1H-pyrazol-4-yl)-1-((3-methylisoxazol-5-yl)methyl)-3,4-dihydropyrido[4,3-d]pyrimidin-2(1H)-one] | >5 | >10
COc1cc(OC)c(F)c(N2Cc3cnc(-c4cn(C)nc4C)cc3N(C3CCN(C(C)=O)CC3)C2=O)c1F [Example 43, 1-(1-acetylpiperidin-4-yl)-3-(2,6-difluoro-3,5-dimethoxyphenyl)-7-(1,3-dimethyl-1H-pyrazol-4-yl)-3,4-dihydropyrido[4,3-d]pyrimidin-2(1H)-one] | >10 | >5
CCN1C(=O)N(c2c(F)c(OC)cc(OC)c2F)Cc2cnc(-c3cnn(C)c3)cc21 [Example 169, 3-(2,6-difluoro-3,5-dimethoxyphenyl)-1-ethyl-7-(1-methyl-1H-pyrazol-4-yl)-3,4-dihydropyrido[4,3-d]pyrimidin-2(1H)-one] | >3 | >5
CCn1cc(-c2cc3c(cn2)CN(c2c(F)c(OC)cc(OC)c2F)C(=O)C32CC2)c(C)n1 [Example 158, 2′-(2,6-difluoro-3,5-dimethoxyphenyl)-6′-(1-ethyl-3-methyl-1H-pyrazol-4-yl)-1′H-spiro[cyclopropane-1,4′-[2,7]naphthyridin]-3′(2′H)-one] | >5 | >3
COc1cc(OC)c(F)c(N2Cc3cnc(-c4cn(C)nc4C)cc3N(Cc3ccc(C#N)nc3)C2=O)c1F [Example 74, 5-((3-(2,6-difluoro-3,5-dimethoxyphenyl)-7-(1,3-dimethyl-1H-pyrazol-4-yl)-2-oxo-3,4-dihydropyrido[4,3-d]pyrimidin-1(2H)-yl)methyl)picolinonitrile] | >5 | >5
COc1cc(OC)c(F)c(N2Cc3cnc(-c4cn(CCN(C)C)nc4C)cc3C3(CC3)C2=O)c1F [Example 164, 2′-(2,6-difluoro-3,5-dimethoxyphenyl)-6′-(1-(2-(dimethylamino)ethyl)-3-methyl-1H-pyrazol-4-yl)-1′H-spiro[cyclopropane-1,4′-[2,7]naphthyridin]-3′(2′H)-one] | >3 | >3
COc1cc(OC)c(F)c(N2Cc3cnc(-c4cnn(CC5CN(S(C)(=O)=O)C5)c4)cc3C3(CC3)C2=O)c1F [Example 166, 2′-(2,6-difluoro-3,5-dimethoxyphenyl)-6′-(1-((1-(methylsulfonyl)azetidin-3-yl)methyl)-1H-pyrazol-4-yl)-1′H-spiro[cyclopropane-1,4′-[2,7]naphthyridin]-3′(2′H)-one] | >3 | >3
COc1cc(OC)c(F)c(N2Cc3cnc(-c4cn(C)nc4C)cc3N(c3cnn(C4CC4)c3)C2=O)c1F [Example 130, 1-(1-cyclopropyl-1H-pyrazol-4-yl)-3-(2,6-difluoro-3,5-dimethoxyphenyl)-7-(1,3-dimethyl-1H-pyrazol-4-yl)-3,4-dihydropyrido[4,3-d]pyrimidin-2(1H)-one] | >5 | >5
CCN1C(=O)N(c2c(F)c(OC)cc(OC)c2F)Cc2cnc(-c3ccc(CN4CC[C@H](C#N)C4)cc3)cc21 [Example 25, (S)-1-(4-(3-(2,6-difluoro-3,5-dimethoxyphenyl)-1-ethyl-2-oxo-1,2,3,4-tetrahydropyrido[4,3-d]pyrimidin-7-yl)benzyl)pyrrolidine-3-carbonitrile] | >5 | >5

More lines, now with the values ahead:

FGFR1/FGFR3 | FGFR4/FGFR3 | Structure (SMILES)
>5 | >5 | COc1cc(OC)c(F)c(N2Cc3cnc(-c4cn(C)nc4C)cc3N(Cc3ccnc(C)c3)C2=O)c1F [Example 68, 3-(2,6-difluoro-3,5-dimethoxyphenyl)-7-(1,3-dimethyl-1H-pyrazol-4-yl)-1-((2-methylpyridin-4-yl)methyl)-3,4-dihydropyrido[4,3-d]pyrimidin-2(1H)-one]
>5 | >10 | CCCNC(=O)c1ccc(-c2cc3c(cn2)CN(c2c(F)c(OC)cc(OC)c2F)C(=O)N3CC)cn1 [Example 179, 5-(3-(2,6-difluoro-3,5-dimethoxyphenyl)-1-ethyl-2-oxo-1,2,3,4-tetrahydropyrido[4,3-d]pyrimidin-7-yl)-N-propylpicolinamide]
>5 |  | CCN1C(=O)N(c2c(F)c(OC)cc(OC)c2F)Cc2cnc(-c3cccnc3)cc21 [Example 23, 3-(2,6-difluoro-3,5-dimethoxyphenyl)-1-ethyl-7-(pyridin-3-yl)-3,4-dihydropyrido[4,3-d]pyrimidin-2(1H)-one]
>3 | >5 | COc1cc(OC)c(F)c(N2Cc3cnc(-c4cn(C)nc4C)cc3N(c3ccc4cn[nH]c4c3)C2=O)c1F [Example 133, 3-(2,6-difluoro-3,5-dimethoxyphenyl)-7-(1,3-dimethyl-1H-pyrazol-4-yl)-1-(1H-indazol-6-yl)-3,4-dihydropyrido[4,3-d]pyrimidin-2(1H)-one]
>5 | >10 | COc1cc(OC)c(F)c(N2Cc3cnc(-c4cn(C)nc4C)cc3N(Cc3cccnn3)C2=O)c1F [Example 88, 3-(2,6-difluoro-3,5-dimethoxyphenyl)-7-(1,3-dimethyl-1H-pyrazol-4-yl)-1-(pyridazin-3-ylmethyl)-3,4-dihydropyrido[4,3-d]pyrimidin-2(1H)-one]
>5 |  | CNC(=O)c1ccc(-c2cc3c(cn2)CN(c2c(F)c(OC)cc(OC)c2F)C(=O)C32CC2)cn1 [Example 18, 5-(2′-(2,6-difluoro-3,5-dimethoxyphenyl)-3′-oxo-2′,3′-dihydro-1′H-spiro[cyclopropane-1,4′-[2,7]naphthyridine]-6′-yl)-N-methylpicolinamide]
>1 | >10 | COc1cc(OC)c(F)c(N2Cc3cnc(-c4cn(C)nc4C)cc3N(CC3CCOCC3)C2=O)c1F [Example 37, 3-(2,6-difluoro-3,5-dimethoxyphenyl)-7-(1,3-dimethyl-1H-pyrazol-4-yl)-1-((tetrahydro-2H-pyran-4-yl)methyl)-3,4-dihydropyrido[4,3-d]pyrimidin-2(1H)-one]
>5 | >3 | COc1cc(OC)c(F)c(N2Cc3cnc(-c4cn(C)nc4C)cc3N(c3ccc(C#N)cn3)C2=O)c1F [Example 79, 6-(3-(2,6-difluoro-3,5-dimethoxyphenyl)-7-(1,3-dimethyl-1H-pyrazol-4-yl)-2-oxo-3,4-dihydropyrido[4,3-d]pyrimidin-1(2H)-yl)nicotinonitrile]
>5 |  | COc1cc(OC)c(F)c(N2Cc3cnc(-c4cn(C)nc4C)cc3C3(CC3)C2=O)c1F [Example 21, 2′-(2,6-difluoro-3,5-dimethoxyphenyl)-6′-(1,3-dimethyl-1H-pyrazol-4-yl)-1′,2′-dihydro-3′H-spiro[cyclopropane-1,4′-[2,7]naphthyridin]-3′-one]
>5 | >3 | COc1cc(OC)c(F)c(N2Cc3cnc(-c4cnn(CCN5CCC(OC)C5)c4)cc3C3(CC3)C2=O)c1F (stereo not shown) [Example 161, 2′-(2,6-difluoro-3,5-dimethoxyphenyl)-6′-(1-(2-(3-methoxypyrrolidin-1-yl)ethyl)-1H-pyrazol-4-yl)-1′H-spiro[cyclopropane-1,4′-[2,7]naphthyridin]-3′(2′H)-one]
>10 | >10 | COc1ccc(CN2C(=O)N(c3c(F)c(OC)cc(OC)c3F)Cc3cnc(-c4cn(C)nc4C)cc32)cn1 [Example 59, 3-(2,6-difluoro-3,5-dimethoxyphenyl)-7-(1,3-dimethyl-1H-pyrazol-4-yl)-1-((6-methoxypyridin-3-yl)methyl)-3,4-dihydropyrido[4,3-d]pyrimidin-2(1H)-one]
>10 | >5 | CCN1C(=O)N(c2c(F)c(OC)cc(OC)c2F)Cc2cnc(-c3ccc(C(=O)NC4CC4)nc3)cc21 [Example 176, N-cyclopropyl-5-(3-(2,6-difluoro-3,5-dimethoxyphenyl)-1-ethyl-2-oxo-1,2,3,4-tetrahydropyrido[4,3-d]pyrimidin-7-yl)picolinamide]
>3 | >5 | COc1cc(OC)c(F)c(N2Cc3cnc(-c4cn(C)nc4C)cc3N(CCc3cnn(C)c3)C2=O)c1F [Example 114, 3-(2,6-difluoro-3,5-dimethoxyphenyl)-7-(1,3-dimethyl-1H-pyrazol-4-yl)-1-(2-(1-methyl-1H-pyrazol-4-yl)ethyl)-3,4-dihydropyrido[4,3-d]pyrimidin-2(1H)-one]
>5 | >10 | COc1cc(OC)c(F)c(N2Cc3cnc(-c4cn(C)nc4C)cc3N(Cc3ccc(F)cc3)C2=O)c1F [Example 34, 3-(2,6-difluoro-3,5-dimethoxyphenyl)-7-(1,3-dimethyl-1H-pyrazol-4-yl)-1-(4-fluorobenzyl)-3,4-dihydropyrido[4,3-d]pyrimidin-2(1H)-one]
>5 | >10 | COc1cc(OC)c(F)c(N2Cc3cnc(-c4cn(C)nc4C)cc3N(Cc3ccc(F)c(F)c3)C2=O)c1F [Example 73, 3-(2,6-difluoro-3,5-dimethoxyphenyl)-1-(3,4-difluorobenzyl)-7-(1,3-dimethyl-1H-pyrazol-4-yl)-3,4-dihydropyrido[4,3-d]pyrimidin-2(1H)-one]

— patent US10251892B2, “Bicyclic heterocycles as FGFR4 inhibitors” (Incyte Corporation, priority 2015, dated 2019)
